From patent publication US20150306090A1, “ORALLY ADMINISTERED MEDICAL COMPOSITION” (ASTELLAS PHARMA INC., priority 2012, published 2015)
Converted amounts (≈) assume the structure as drawn.

Test: physchem
Format: physicochemical
Source text: Further, the current product (Vesicare (registered trademark)) has been placed on the market, as a drug-immediate-release formulation. Furthermore, although the active ingredient is not the same, a bi-layered tablet comprising a modified release portion containing tamsulosin or a pharmaceutically acceptable salt thereof, and an immediate release portion containing solifenacin or a pharmaceutically acceptable salt thereof, is known (Patent literature 7).

solubility (pH 6.8, aqueous buffer): 430 mg/mL (≈ 1190 mM)
solubility (water): 610 mg/mL (≈ 1680 mM)
Structure (SMILES): O=C(O[C@H]1CN2CCC1CC2)N1CCc2ccccc2[C@@H]1c1ccccc1 [solifenacin, (R)-quinuclidin-3-yl (S)-1-phenyl-1,2,3,4-tetrahydroisoquinoline-2-carboxylate]
